This note sets out measurements from US8334259B2, “Method of treating endothelial dysfunction comprising administration of a thrombin peptide derivative” (The Board of Regents, The University of Texas System, priority 2006, dated 2012).

Test [1] concerns eNOS. Nature of the test: Western blot of eNOS expression and phosphorylation (S1177) in HCAE cells. Particulars: 24 h. Format: cell-based, human. The protocol:
(§1) Human coronary artery endothelial cells (HCAE cells, Cambrex Bio Science Walkersville, Walkersville, Md.) were cultured in 5% CO2 at 37° C. in endothelial cell growth medium (EGM) supplemented with 2% fetal bovine serum and Single Quot supplements (Clonetics, San Diego, Calif.; containing epidermal growth factor, hydrocortisone, vascular endothelial growth factor, fibroblast growth factor, insulin growth factor, ascorbic acid, heparin, gentamycin, and amphotericin B). Cells were used between passages 4 and 6 for these studies. HCAE cells were plated at a density of 50,000 cells per well in 12-well plates and were grown for 3 days to reach confluency. Two-day post-confluent cells were treated with TNFα or TP508. Cells were then incubated in normoxic or 1% hypoxic conditions for the indicated times. In some experiments, cells were pretreated with TP508 for 1 h before TNFα stimulation. For RNA extraction, HCAE cells were cultured in 6-well plates.
The cell lysates were subjected to SDS-PAGE in a 10% polyacrylamide gel and transferred to a nitrocellulose membrane (0.2-μm, Invitrogen). After blocking with 5% milk, the membrane was incubated overnight at 4° C. with primary antibodies against phospho-eNOS (Ser 1177) and eNOS (Cell Signaling Technology, Beverly, Mass.), human type-1 arginase (clone 9C5) (Cell Sciences, Canton, Mass.), or GAPDH (Santa Cruz Biotechnology, Santa Cruz, Calif.). […]
Background: A western blot detects proteins with antibodies after separation by electrophoresis.

Test [2] has as its system arginase 1 (ARG1). Nature of the test: Western blot of arginase 1 expression in HCAE cells with or without TNFα. The class given is cell-based, human. Particulars: TNFα 24 h, normoxic.
Experimental: Human coronary artery endothelial cells (HCAE cells, Cambrex Bio Science Walkersville, Walkersville, Md.) were cultured in 5% CO2 at 37° C. in endothelial cell growth medium (EGM) supplemented with 2% fetal bovine serum and Single Quot supplements (Clonetics, San Diego, Calif.; containing epidermal growth factor, hydrocortisone, vascular endothelial growth factor, fibroblast growth factor, insulin growth factor, ascorbic acid, heparin, gentamycin, and amphotericin B). Cells were used between passages 4 and 6 for these studies. HCAE cells were plated at a density of 50,000 cells per well in 12-well plates and were grown for 3 days to reach confluency. […] Cells were then incubated in normoxic or 1% hypoxic conditions for the indicated times.
The cell lysates were subjected to SDS-PAGE in a 10% polyacrylamide gel and transferred to a nitrocellulose membrane (0.2-μm, Invitrogen). After blocking with 5% milk, the membrane was incubated overnight at 4° C. with primary antibodies against phospho-eNOS (Ser 1177) and eNOS (Cell Signaling Technology, Beverly, Mass.), human type-1 arginase (clone 9C5) (Cell Sciences, Canton, Mass.), or GAPDH (Santa Cruz Biotechnology, Santa Cruz, Calif.). HRP-conjugated anti-mouse or anti-rabbit antibodies (Cell Signaling Technology) were used as secondary antibodies (HRP, horseradish peroxidase). […]
Test [3] deals with eNOS mRNA. Nature of the test: SYBR Green real-time PCR of eNOS mRNA in HCAE cells. The class given is cell-based, human. The note with it: 24 h. How it is done:
as §1
Real time quantitative PCR was used to determine relative expression of eNOS mRNA in endothelial cells treated with TP508 or TNF. […] Quantitative PCR amplifications were done using 2 μl of cDNA in a total volume of 25 μl using SYBR green probes in the SYBR Green PCR Master Mix (ABI). […] The reverse-transcribed cDNA sample cycle threshold values were determined from triplicate samples and normalized to the 18S “housekeeping” gene.
On the technique in general: Real-time PCR tracks product formation cycle by cycle.

For test [4], the system named is eNOS mRNA. Briefly: RT-PCR of eNOS mRNA in HCAE cells. Particulars: 6 h, 25 or 30 cycles. Format: cell-based, human. The protocol:
as §1
Total RNA was isolated using an Ambion isolation kit as described by the manufacturer.
RT-PCR for eNOS was performed by Ready-to-Go RT-PCR Beads (Amersham Biosciences) using a two-step protocol. First, cDNA synthesis was achieved by incubating 1 μg total RNA with 1 μg random hexamers (pdN6) as primers and M.-MuLV reverse transcriptase at 42° C. for 60 min. […]

The subject of test [5] is ARG1. Briefly: ARG1 expression in HAE cells treated with TNFα. The class given is cell-based, human. The source says:
Under normoxic conditions, TP508 increased phosphorylated eNOS (p-eNOS) and eNOS in cells with and without TNFα/hypoxic treatment.

Test [6] deals with 23C53. Nature of the test: Binding of biotin-conjugated thrombin to complementary peptide 23C53.
Test [7] deals with AC-23. Nature of the test: Binding of biotin-conjugated thrombin to complementary peptide AC-23. The source says: Addition of TP508 inhibited specific binding of biotin-labeled thrombin to AC-23. Up to 60% of the binding of thrombin to AC-23 can be inhibited by the addition of TP508. Therefore, both thrombin and TP508 bind to the complementary peptide, AC-23. […] Antibodies to AC-23 and other complementary peptides of thrombin can therefore be used to characterize the thrombin binding site that is activated by TP508, and can be used in the therapeutic and other methods described herein.

The subject of test [8] is VEGF mRNA. Briefly: Real-time PCR of VEGF mRNA in HCMVE cells. The class given is cell-based, human. Particulars: VEGF 10 ng/ml, 24 h. The source says: Real-time PCR analyses show changes in steady-state levels of VEGF mRNA after treatment. Data from one experiment performed in triplicate are shown in FIG. 11 as mean±SD. *p<0.01 compared to control (C) cells in normoxia. ^#p<0.01 compared to control (C) cells in hypoxia.

Test [9] has as its system Human coronary artery endothelial (HCAE) cells. Briefly: Endothelial cell invasion assay through Matrigel toward human VEGF. The class given is cell-based. Particulars: cells not pretreated, VEGF 10 ng/ml, normoxic or hypoxic. The protocol: Invasion of endothelial cells through a Matrigel matrix is one of many assays used to determine the angiogenic potential of test substances and is thought to be more predictive of angiogenesis in vivo than a simple chemotactic assay through open membrane pores since the cells must degrade and invade the matrix to move into and through the pores in the membrane. […] Human coronary artery endothelial (HCAE) cells (Lonza Walkersville, Inc., Walkersville, Md.) were cultured in the absence (control) or presence of TP508 [50 μg/ml] (TP pret) for 24 hours. Endothelial cell invasion assays were performed using BD BioCoat™ Angiogenesis System (BD Bioscience, Bedford, Mass.) which utilizes FluoroBlok inserts coated with BD Matrigel Matrix (BD Bioscience, Bedford, Mass.). Control or TP508 pretreated cells were added into the top of the inserts. […] After 22 hours of incubation, cells were labeled post-invasion with Calcein AM and measured by detecting the fluorescence of the cells that migrated to the underside of insert membrane.

For test [10] the test system is unchanged. Briefly: Transmembrane cell migration assay toward human VEGF (BD FluoroBlok inserts). The class given is cell-based. The note with it: VEGF 10 ng/ml, hypoxic, 22 h. The protocol: The ability of a test substance to attract endothelial cells and stimulate their migration through pores in the membrane is one of several tests to determine the angiogenic potential of test substances. […] Prior to migration assay, cells were cultured with or without TP508 to determine the effect of TP508 on endothelial migration. Human coronary artery endothelial (HCAE) cells (Lonza Walkersville, Inc., Walkersville, Md.) were cultured in the absence (control) or presence of TP508 [50 μg/ml] (“TP pret” in FIG. 9A and FIG. 9B) for 24 hours. Transmembrane cell migration assays were performed using BD FluoroBlok inserts (BD Bioscience, Bedford, Mass.) as described by the vendor. Control or TP508 pretreated cells were added into the top of the inserts. […] (V) or medium alone (C) was added to the lower chamber of the insert plate as a chemoattractant. Endothelial migration was performed in normoxic or 1% hypoxic conditions. After a 22-hour incubation, cells were labeled post-migration with Calcein AM and measured by detecting the fluorescence of the cells that migrated to the underside of the insert membrane.

For test [11], the system named is eNOS. Nature of the test: Human VEGF-induced eNOS activation (phosphorylation at S1177) in HCAE cells, Western blot. The class given is cell-based. How it is done: Human VEGF-induced eNOS activation was determined by Western blotting using an antibody recognizing the activated form of eNOS (phosphorylated at […]) (Cell Signaling, Danvers, Mass.). The membrane was re-probed with anti-GAPDH (glyceraldehyde-3-phosphate dehydrogenase) antibody to show equal protein loading. A bar graph representing densitometric analysis of the activated eNOS Western blot after different treatments is shown in FIG. 8.

Test [12] relates to HLME (Human Lung Microvascular Endothelial Cells). Nature of the test: Survival of serum-deprived HLME cells. Format: cell-based.

Sequence of AC-23 (as listed by the source): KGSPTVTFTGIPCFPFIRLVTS
Sequence of 23C53 (as listed by the source): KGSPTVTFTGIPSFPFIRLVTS

TNFα: in test [1], the “Reduction of eNOS expression relative to normoxic controls” value is on record as 65%. In addition, in [2], the “ARG1 expression relative to control cultures” value is given as “significant increase”. The “Decrease of eNOS mRNA level” value in [3] is around 80%. In addition, the “eNOS mRNA expression (RT-PCR)” value in [4] is reported as “drastically decreased”. Also, in test [5], the “Expression of ARG1” value is recorded as “increasing expression”.
For the substance thrombin, in [6], the “Specific binding of thrombin to 23C53” value is listed as “bind specifically”. The “Specific binding of thrombin to AC23” value in test [7] is reported as “bind specifically”.
Take VEGF: the “VEGF mRNA in hypoxic cells” value in [8] (1% hypoxic) is reported as “no effect, or decreased”. The “Decrease of VEGF mRNA expression compared to control cells” value in test [8] (normoxic) is reported as 2 fold. Moreover, in [9], the “Invasion of control endothelial cells through Matrigel toward human VEGF” value is given as “not stimulated”. Further, the “Endothelial cell migration relative to media control cells” value in [10] is around 150%. For the same substance, in test [11] (hypoxic (1% O2, 24 h) HCAE cells, 1 min VEGF), the “Decrease of VEGF-stimulated eNOS phosphorylation in hypoxic compared to normoxic cells” value is around 4 fold. For the same substance, the “VEGF-induced phosphorylation of eNOS on serine 1177, maximum” value in test [11] (normoxic HCAE cells, VEGF 50 ng/ml, 1 minute) is 2 fold. Moreover, in test [12], the Cell survival entry is listed as “increased survival at lower levels”.
